Converted amounts (≈) assume the structure as drawn.

The conditions of data set [1]: cited from earlier work; for effectiveness in treating psoriasis: inhibitors of purine or pyrimidine nucleotide biosynthesis; for side effects: psoriasis treatment; for clearing lesions: psoriasis, experimental use as chemotherapeutic agents.
Data set [2] deals with Normal Human Epidermal Keratinocytes (NHEK). Description: Proliferation assay vs Normal Human Epidermal Keratinocytes (NHEK growth inhibition). Particulars: Dulbecco's modified Eagle's medium, 10% fetal calf serum, 37° C., 5% CO2, Giemsa, 650 nm, read-out: ED50 NHEK. The class given is cell-based. The procedure:
In these experiments, NHEK's were cultured in Dulbecco's modified Eagle's medium with 10% fetal calf serum at 37° C., 5% CO2. Each well of a 96 well plate was seeded with 2000 cells in 200 μl of each drug dilution in duplicate. A plate was stopped and fixed for each time point, stained with Giemsa and then read in a Titertek plate reader at 650 nm, and the absorbances were calibrated with known cell numbers on control plates. NHEK's were obtained from Clonetics Corporation at the secondary stage.

For data set [3], the system named is nucleotide biosynthesis in normal human epidermal keratinocyte cells. Description: inhibition of nucleotide biosynthesis in normal human epidermal keratinocyte cells in vitro. The class given is cell-based. More on the design: dose or concentration left out as unconfirmed. From the text: It has been known that it is the hyperproliferation of these cells in humans which causes psoriasis.

As for `CN(Cc1cnc2nc(N)nc(N)c2n1)c1ccc(C(=O)N[C@@H](CCC(=O)O)C(=O)O)cc1` [methotrexate], in data set [1], the “effectiveness in treating psoriasis” value was “effective in treating the disease” and the side effects entry was “unacceptable side effects due to toxicity”. Turning to `NC(=O)c1nnn(Cc2cc(Cl)c(Cc3ccc(Cl)c4ccccc34)c(Cl)c2)c1N` [Cl, Cl, CH2, α-Naphth-4-Cl, 5-Amino-l-[4-[(4-chloro-l-naphthalene)methyl]-3,5dichlorobenzyl]-1,2,3-triazole-4-carboxamide], the IC50 in data set [2] was 0.3 µg/mL (≈ 0.651 µM). Take `NC(=O)c1nnn(Cc2cc(Cl)c(C(=O)c3ccc(Cl)c4ccccc34)c(Cl)c2)c1N` [Compound A, 5-amino-l-(4-(4-chloronaphthoyl)-3,5-dichlorobenzyl)-1,2,3-triazole-4-carboxamide]: the IC50 in data set [2] was determined as 0.08 µg/mL (≈ 0.169 µM). The “efficacy in inhibiting nucleotide biosynthesis” value in data set [3] is recorded as “inhibiting nucleotide biosynthesis”. With `NC(=O)c1nnn(Cc2cc(Cl)c(Oc3ccc(Cl)c4ccccc34)c(Cl)c2)c1N` [Cl, Cl, O, α-Naphth-4-Cl, 5-Amino-l-[4-[(4-chloro-l-naphthalene)oxy]-3,5dichlorobenzyl]-1,2,3-triazole-4-carboxamide], the IC50 in data set [2] was determined as 0.3 µg/mL (≈ 0.648 µM).

Take `O=c1[nH]cc(F)c(=O)[nH]1` [fluorouracil]: in data set [1], the “effectiveness in treating psoriasis” value is given as “effective in treating the disease” and the side effects entry is listed as “unacceptable side effects due to toxicity”.

Turning to `NC(=O)c1nnn(Cc2cc(Cl)c(C(=O)c3ccc(Cl)cc3)c(Cl)c2)c1N` [Reference compound], in data set [2], the IC50 fell in the range of 0.5 to 1 µg/mL (≈ 1.18 to 2.35 µM). On the same count and under the same terms, the result for `NC(=O)c1nnn(Cc2cc(Cl)c(C(=O)c3ccc4ccccc4c3)c(Cl)c2)c1N` [Cl, Cl, CO, β-Naphth, 5-Amino-1-[4-(2-naphthoyl)-3,5-dichlorobenzyl]-1,2,3-triazole-4-carboxamide] reads 1 µg/mL (≈ 2.27 µM). Consider `COc1c(C)c2c(c(O)c1C/C=C(\C)CCC(=O)O)C(=O)OC2` [Mycophenolic acid], for which the effect on psoriasis result in data set [1] (mycophenolic acid given orally) was “controls psoriasis by causing remission”. Moreover, in data set [1], the side effects result is recorded as “unacceptable side effects” and the clearing lesions entry is recorded as “success in clearing lesions”. In the case of `Nc1nc2nc[nH]c2c(=S)[nH]1` [thioguanine], in data set [1], the “effectiveness in treating psoriasis” value is “effective in treating the disease”, the side effects result is on record as “unacceptable side effects due to toxicity” and the clearing lesions result is “success in clearing lesions”. As for `NC(=O)c1nnn(Cc2cc(Cl)c(C(=O)c3cccc4ccccc34)c(Cl)c2)c1N` [Cl, Cl, CO, α-Naphth, 5-Amino-l-[4-(l-naphthoyl)-3,5-dichlorobenzyl]-l,2,3-triazole-4-carboxamide], the IC50 in data set [2] was 0.3 µg/mL (≈ 0.681 µM).

In the case of `O=C(O)C[C@H](NC(=O)CP(=O)(O)O)C(=O)O` [N-phosphonacetyl-L-aspartate], in data set [1], the “effectiveness in treating psoriasis” value is listed as “effective in treating the disease” and the side effects result was “unacceptable side effects due to toxicity”.
